What follows are molecules tested on F. nucleatum (assay: MIC assay for bactericidal activity (microtiter format)). Conditions: individual flavors, 1% by weight solution in ethanol; F. nucleatum; lower = more effective.
Assay type: cell-based
Set-up: MIC Value: unit not given here
Protocol: A 1% by weight solution in ethanol of a series of individual essential oil flavors were prepared and evaluated in an MIC assay for bactericidal activity against F. nucleatum. The bacterial strain F. nucleatum is implicated in the occurrence of oral malodor.
The bacterial strains of F. nucleatum were grown […] in thioglycolate broth for 48 hours at 37° C. The optical density at 610 nm was adjusted to between 0.1 to 0.2 prior the MIC determination.
MIC determinations were performed using the microtiter format according to standard procedures (Manual of clinical Microbiology, 1995).
The procedure of Example 1 was repeated except combinations of various flavor compounds were evaluated for antibacterial efficacy via the MIC assay.
`CC12CCC(CC1)C(C)(C)O2` [Eucalyptol] was tested, and the “MIC Value” was 500.
With `Cc1ccc(C(C)C)c(O)c1` [Thymol] the “MIC Value” was 125.
`O=C/C=C/c1ccccc1` [Cinnamic aldehyde] was tested, and the “MIC Value” was 125.
For `C=CCc1ccc(O)c(OC)c1` [Eugenol], the “MIC Value” was 250.
For `CC(C)[C@@H]1CC[C@@H](C)C[C@H]1O` [L-menthol], the “MIC Value” was 500.
In the case of `CC=Cc1ccc(OC)cc1` [Anethol], the “MIC Value” is reported as 500.

Same assay, conditions: summary of Table I
With `Cc1ccc(C(C)C)c(O)c1` [Thymol] the “bactericidal activity against F. nucleatum (in words)” value (“bactericidal activity” below) was “good bactericidal activity”.
In the case of `O=C/C=C/c1ccccc1` [Cinnamic aldehyde], the “bactericidal activity” value is reported as “good bactericidal activity”.
For `C=CCc1ccc(O)c(OC)c1` [Eugenol], the “bactericidal activity” value was “good bactericidal activity”.

Source: patent US6379652B1, “Oral compositions for reducing mouth odors” (Colgate Palmolive Company, priority 2000, dated 2002)
